This passage reports Activity results from ChEMBL document CHEMBL2074263, “P-glycoprotein efflux at the blood-brain barrier mediates differences in brain disposition and pharmacodynamics between two structurally related neurokinin-1 receptor antagonists” (J Pharmacol Exp Ther, 2001).

This data set addresses P-glycoprotein 1 and 3 (MDR1a/MDR1b) (Mus musculus, UniProt P21447+P06795). Nature of the data set: TP_TRANSPORTER: increase in brain concentration in mdr1a/1b(-/-) mouse. Particulars: in vivo. Format: functional, organism-based.

Take `COc1ccc(N(C)S(C)(=O)=O)cc1CN[C@H]1CCCN[C@H]1c1ccccc1`: the Activity entry was “substrate [+]”.
